{
  "source": "PubChem BioAssay (NCI)",
  "experiment_in_all_cases": "NCI-60 cell line screen, 48 h",
  "key": {"IGROV1 ovarian": {"tested_on": "IGROV1 ovarian"}, "SF-295 CNS": {"tested_on": "SF-295 CNS"}, "SF-539 CNS": {"tested_on": "SF-539 CNS"}, "SW-620 colon": {"tested_on": "SW-620 colon"}, "NCI-H522 lung": {"tested_on": "NCI-H522 lung"}, "DU-145 prostate": {"tested_on": "DU-145 prostate"}, "SK-MEL-5 melanoma": {"tested_on": "SK-MEL-5 melanoma"}, "CCRF-CEM leukemia": {"tested_on": "CCRF-CEM leukemia"}, "UACC-257 melanoma": {"tested_on": "UACC-257 melanoma"}, "HOP-62 NSCLC": {"tested_on": "HOP-62 NSCLC"}},
  "note": "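Interpolation was linear, between the two tested concentrations surrounding the appropriate level; five concentrations were tested over 48 hours in 96-well plates. At the TGI there is no net growth.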",
  "data": [
    {"compound": "CCN(CC)CCSc1c(C(C)=O)c(=O)n(-c2ccccc2)c(=S)n1-c1ccccc1", "values": [
      {"measurement": "TGI", "setting": "IGROV1 ovarian", "value": 27.2, "unit": "µM"},
      {"measurement": "TGI", "setting": "SF-295 CNS", "value": "> 100", "unit": "µM"},
      {"measurement": "TGI", "setting": "SF-539 CNS", "value": 6.01, "unit": "µM"},
      {"measurement": "TGI", "setting": "SW-620 colon", "value": 13.4, "unit": "µM"},
      {"measurement": "TGI", "setting": "NCI-H522 lung", "value": 5.54, "unit": "µM"},
      {"measurement": "TGI", "setting": "DU-145 prostate", "value": 10, "unit": "µM"},
      {"measurement": "TGI", "setting": "SK-MEL-5 melanoma", "value": "> 45.1", "unit": "µM"},
      {"measurement": "TGI", "setting": "CCRF-CEM leukemia", "value": "> 100", "unit": "µM"},
      {"measurement": "TGI", "setting": "UACC-257 melanoma", "value": 23.4, "unit": "µM"},
      {"measurement": "TGI", "setting": "HOP-62 NSCLC", "value": 45.3, "unit": "µM"}
    ]},
    {"compound": "C=C(C)[C@H]1CC(=O)[C@@]2(C)C[C@H]3O[C@]3(C)CC/C=C(\\C)CC[C@H]12", "values": [
      {"measurement": "TGI", "setting": "IGROV1 ovarian", "value": "> 100", "unit": "µM"},
      {"measurement": "TGI", "setting": "SF-295 CNS", "value": "> 100", "unit": "µM"},
      {"measurement": "TGI", "setting": "SF-539 CNS", "value": "> 100", "unit": "µM"},
      {"measurement": "TGI", "setting": "SW-620 colon", "value": "> 100", "unit": "µM"},
      {"measurement": "TGI", "setting": "NCI-H522 lung", "value": "> 100", "unit": "µM"},
      {"measurement": "TGI", "setting": "DU-145 prostate", "value": "> 100", "unit": "µM"},
      {"measurement": "TGI", "setting": "SK-MEL-5 melanoma", "value": 95.6, "unit": "µM"},
      {"measurement": "TGI", "setting": "CCRF-CEM leukemia", "value": "> 100", "unit": "µM"},
      {"measurement": "TGI", "setting": "UACC-257 melanoma", "value": 55.8, "unit": "µM"},
      {"measurement": "TGI", "setting": "HOP-62 NSCLC", "value": "> 100", "unit": "µM"}
    ]},
    {"compound": "CCCCCCCCCCCCc1ccsc1-c1ccc(-c2ccc(-c3sccc3CCCCCCCCCCCC)s2)s1", "values": [
      {"measurement": "TGI", "setting": "IGROV1 ovarian", "value": "> 100", "unit": "µM"},
      {"measurement": "TGI", "setting": "SF-295 CNS", "value": "> 100", "unit": "µM"},
      {"measurement": "TGI", "setting": "SF-539 CNS", "value": "> 100", "unit": "µM"},
      {"measurement": "TGI", "setting": "SW-620 colon", "value": "> 100", "unit": "µM"},
      {"measurement": "TGI", "setting": "NCI-H522 lung", "value": "> 100", "unit": "µM"},
      {"measurement": "TGI", "setting": "DU-145 prostate", "value": "> 100", "unit": "µM"},
      {"measurement": "TGI", "setting": "SK-MEL-5 melanoma", "value": "> 100", "unit": "µM"},
      {"measurement": "TGI", "setting": "CCRF-CEM leukemia", "value": "> 100", "unit": "µM"},
      {"measurement": "TGI", "setting": "UACC-257 melanoma", "value": "> 100", "unit": "µM"},
      {"measurement": "TGI", "setting": "HOP-62 NSCLC", "value": "> 100", "unit": "µM"}
    ]},
    {"compound": "CN(C)NC1=NS(=O)(=O)c2cc3c(=O)n(C)[nH]c3cc2S1", "values": [
      {"measurement": "TGI", "setting": "IGROV1 ovarian", "value": "> 10", "unit": "µM"},
      {"measurement": "TGI", "setting": "SF-295 CNS", "value": "> 10", "unit": "µM"},
      {"measurement": "TGI", "setting": "SF-539 CNS", "value": "> 10", "unit": "µM"},
      {"measurement": "TGI", "setting": "SW-620 colon", "value": "> 10", "unit": "µM"},
      {"measurement": "TGI", "setting": "NCI-H522 lung", "value": "> 10", "unit": "µM"},
      {"measurement": "TGI", "setting": "DU-145 prostate", "value": "> 10", "unit": "µM"},
      {"measurement": "TGI", "setting": "SK-MEL-5 melanoma", "value": "> 10", "unit": "µM"},
      {"measurement": "TGI", "setting": "CCRF-CEM leukemia", "value": "> 10", "unit": "µM"},
      {"measurement": "TGI", "setting": "UACC-257 melanoma", "value": "> 10", "unit": "µM"},
      {"measurement": "TGI", "setting": "HOP-62 NSCLC", "value": "> 10", "unit": "µM"}
    ]},
    {"compound": "O=C1c2ccccc2C(=O)N1NC1=NCCN1", "values": [
      {"measurement": "TGI", "setting": "IGROV1 ovarian", "value": "> 100", "unit": "µM"},
      {"measurement": "TGI", "setting": "SF-295 CNS", "value": "> 100", "unit": "µM"},
      {"measurement": "TGI", "setting": "SF-539 CNS", "value": "> 100", "unit": "µM"},
      {"measurement": "TGI", "setting": "SW-620 colon", "value": "> 100", "unit": "µM"},
      {"measurement": "TGI", "setting": "NCI-H522 lung", "value": "> 100", "unit": "µM"},
      {"measurement": "TGI", "setting": "DU-145 prostate", "value": "> 100", "unit": "µM"},
      {"measurement": "TGI", "setting": "SK-MEL-5 melanoma", "value": "> 100", "unit": "µM"},
      {"measurement": "TGI", "setting": "CCRF-CEM leukemia", "value": "> 100", "unit": "µM"},
      {"measurement": "TGI", "setting": "UACC-257 melanoma", "value": "> 100", "unit": "µM"},
      {"measurement": "TGI", "setting": "HOP-62 NSCLC", "value": "> 100", "unit": "µM"}
    ]},
    {"compound": "CCCCCCCCCCCCCCCC(=O)OC1C(O)C(O)C(O)C(O)C12CO2", "note": "(stereo not given)", "values": [
      {"measurement": "TGI", "setting": "IGROV1 ovarian", "value": "> 100", "unit": "µM"},
      {"measurement": "TGI", "setting": "SF-295 CNS", "value": "> 100", "unit": "µM"},
      {"measurement": "TGI", "setting": "SF-539 CNS", "value": 63.9, "unit": "µM"},
      {"measurement": "TGI", "setting": "SW-620 colon", "value": 40, "unit": "µM"},
      {"measurement": "TGI", "setting": "NCI-H522 lung", "value": "> 100", "unit": "µM"},
      {"measurement": "TGI", "setting": "DU-145 prostate", "value": "> 100", "unit": "µM"},
      {"measurement": "TGI", "setting": "SK-MEL-5 melanoma", "value": "> 100", "unit": "µM"},
      {"measurement": "TGI", "setting": "CCRF-CEM leukemia", "value": 41.1, "unit": "µM"},
      {"measurement": "TGI", "setting": "UACC-257 melanoma", "value": "> 100", "unit": "µM"},
      {"measurement": "TGI", "setting": "HOP-62 NSCLC", "value": "> 100", "unit": "µM"}
    ]}
  ]
}
